From article PMC10937556, “Phenolic phytochemistry, in vitro, in silico, in vivo, and mechanistic anti-inflammatory and antioxidant evaluations of Habenaria digitata” (Frontiers in Pharmacology, 2024)
Counter-ions that a name gives are not always drawn.

Experiments:
[1] = ABTS free radical scavenging assay
Method: The ABTS anti-radicals’ analysis was carried out according to [Shah et al. (2015)]. The ABTS solution was prepared by dissolving ABTS salt (192 mg) in distilled H2O, transferred to a flask (50 mL), and volume was adjusted. Thereafter, 1 mL of the preceding solution was added to 17 µL of K₂S₂O₈ (140 mM) and placed in the dark for 24 h s. The experiment’s ultimate ABTS dilution was achieved by mixing 1 mL of the reaction mixture with 50 mL of methanol. The ABTS solution (190 µL) was mixed with the sample solution (10 µL) and added to 96-well plates, which were then incubated at room temperature in dark for 2 h. Following incubation, the measurement of ABTS color intensity was conducted using a microplate reader at 734 nm. Positive control solutions were prepared at values of 1,000–62.5 µM. The percentage of ABTS scavenging was determined by using the following equation: % ABTS scavenging=Control−Sample/control×100.

[2] = H2O2 free radical scavenging activity
Method: The antioxidant potential of isolated compounds was determined using this approach. In a phosphate buffer solution (50 mM, pH 7.40), a solution of H2O2 (2 mM) was produced. The crude extract (0.10 mL) was measured in a test tube and diluted to 0.40 mL using phosphate buffer. Thereafter, H2O2 (0.60 mL) was added and thoroughly mixed. […] 230 nm was used to measure the absorbance of the sample and the standard ([Sadiq et al., 2018]). For all the crude samples, the exact process was followed. According to the procedure, the inhibition percentage and IC50 values were computed.

[3] = DPPH free radical scavenging assay
Method: The DPPH (anti-radicals) investigation was carried out according to our earlier reported protocols. Initially, a methanolic DPPH solution was prepared with a concentration of 0.1%. Subsequently, 100 µL of this solution was mixed with an equal volume of the test samples (100 µL) in 96-well plates, following a 30-min incubation period at 25°C ± 3 °C in the dark. Solutions with concentrations ranging from […] were prepared. Five concentrations of 1,000, 500, 250, 125, and 62.5 µM of the Trolox methanolic solution ([…]) were formed. A color reduction in DPPH was observed after incubation; a microplate reader was used, and absorbance was measured at 540 nm ([Mahnashi et al., 2022a]; [Huneif et al., 2022]). The percentage of scavenging was determined by the formula: Scavenging effect %=control absorbance−sample absorbance/control absorbance×100.

[4] = tested on: carrageenan-induced paw edema; assay: Carrageenan-induced paw edema; format: in vivo, mice; conditions: dose 5 mg/kg
Method: Mice of both sexes (25–30 g) were used for in vivo anti-inflammatory activity of test samples on the carrageenan-induced inflammation model ([Munir et al., 2020]). Mice were distributed into five groups, with eight animals in each group, divided at random. Group-I served as the negative control and received DMSO at a dose of 10 mL/kg body weight. Group-II served as a positive control, which received aspirin at a dose of 100 mg/kg body weight. […] Each mouse received 1 percent (w/v) saline solution (0.05 mL) of carrageenan in the sub-planter region after a 30-min interval. The paw edema volume was determined using a plethysmometer (LE 7500-plan lab S.L) at 1–5 h intervals after carrageenan was given. […] The percentages of inhibition of inflammation were calculated using the formula given below: % inhibition=EC−ET/EC×100, where “EC” is the average edema of control and “ET” is the edema of the tested group.

[5] = tested on: prostaglandin E2-induced paw edema; assay: Prostaglandin E2-induced paw edema; conditions: 50 mg/kg
Method: (§1) Employing prostaglandin E2, bradykinin, leukotriene, and histamine induced paw edema assays; the potential anti-inflammatory mechanism of the isolated compound was investigated. […] Sub-planter injections of prostaglandin E2 (0.01 mg/mL) or 10 mg/mL leukotriene or bradykinin (20 mg/mL) or 0.1 mL histamine (1 mg/mL) produced paw edema after 1 h. Each mouse’s paw volume was assessed immediately before and after sub-planter injection of various irritants (inflammatory agents) at 1–5 h.

[6] = tested on: leukotriene-induced paw edema; assay: Leukotriene-induced paw edema; conditions: standard drug, 3rd hour
Method: as §1

SOD = assay: In vivo antioxidant: SOD activity in brain, heart, liver; design: species or system mice; conditions: p < 0.05, D-galactose aging mice
[7] = tested on: histamine-induced paw edema; assay: Histamine-induced paw edema; conditions: reference drug, 1 h
Method: as §1

What does the source list for `O=C1O[C@H]([C@@H](O)CO)C(O)=C1O` [AA, ascorbic acid, reference compound]?
ABTS IC50 [1]: 0.12 µg/mL; ABTS % inhibition ([1]; 62.5 µg/mL): 81.12 ± 0.34%; ABTS % inhibition ([1]; 125 µg/mL): 84.47 ± 0.49%; ABTS % inhibition ([1]; 250 µg/mL): 87.75 ± 0.14%; ABTS % inhibition ([1]; 500 µg/mL): 91.59 ± 0.30%; ABTS % inhibition ([1]; 1,000 µg/mL): 95.85 ± 0.18%; H2O2 IC50 [2]: 02 µg/mL; H2O2 % inhibition ([2]; 62.5 µg/mL): 71.73 ± 0.66%; H2O2 % inhibition ([2]; 125 µg/mL): 73.70 ± 0.35%; H2O2 % inhibition ([2]; 250 µg/mL): 78.07 ± 0.62%; H2O2 % inhibition ([2]; 500 µg/mL): 83.01 ± 0.42%; H2O2 % inhibition ([2]; 1,000 µg/mL): 87.50 ± 2.26%; DPPH IC50 [3]: 0.47 µg/mL; DPPH % inhibition ([3]; 62.5 µg/mL): 81.35 ± 0.18%; DPPH % inhibition ([3]; 125 µg/mL): 84.20 ± 0.15%; DPPH % inhibition ([3]; 250 µg/mL): 88.42 ± 0.11%; DPPH % inhibition ([3]; 500 µg/mL): 93.62 ± 0.17%; DPPH % inhibition ([3]; 1,000 µg/mL): 97.53 ± 0.20%

With `CC(=O)Oc1ccccc1C(=O)O` [Aspirin, reference compound] as the molecule, how does the “Percentage inhibition of paw edema” value ([4]; 1 h) read?
Its value is 47.50 ± 1.10 %.

And the “Percentage inhibition of paw edema” value ([4]; 2 h)?
The value was 53.61 ± 1.45 %.

And the “Percentage inhibition of paw edema” value ([4]; 3 h)?
Its value is 54.24 ± 1.34 %.

And the “Percentage inhibition of paw edema” value ([4]; 4 h)?
Its value is 57.90 ± 1.93 %.

What about the “Percentage inhibition of paw edema” value ([4]; 5 h) of the same molecule?
The value was 58.62 ± 1.53 %.

And the “Percentage inhibition of paw edema” value ([4]; 5 h, listed as aspirin)?
Its value is 58.62%.

With `Cc1ccc(-c2cc(C(F)(F)F)nn2-c2ccc(S(N)(=O)=O)cc2)cc1` [Celecoxib, reference compound] as the molecule, how does the “Effect on increased PGE2 level” value [5] read?
The value was “significant reduction”.

Which “Percentage inhibition of leukotriene-induced paw edema” value [6] does the source give for `CC(C)(O)c1ccccc1CC[C@@H](SCC1(CC(=O)O)CC1)c1cccc(/C=C/c2ccc3ccc(Cl)cc3n2)c1` [Montelukast, reference compound] here?
The value was 67.02 ± 1.74%.

For `Cc1c(C)c2c(c(C)c1O)CCC(C)(C(=O)O)O2` (stereo not shown) [Trolox, reference compound], which “SOD activity compared to the model group” value (SOD) is on record?
Its value is “higher”.

For `CN(C)CCC(c1ccc(Cl)cc1)c1ccccn1` (stereo not shown) [chlorpheniramine maleate, reference compound], which “Percentage inhibition of histamine-induced paw edema” value [7] is on record?
Its value is 71.62 ± 1.16%.
